Data taken from publication PMC12948427 (The Journal of Clinical Investigation, 2025).
Several values for one entry are separate records, joined by “and”; a condition that tells them apart may be missing. Equal entries are not always repeated. Where two headings read alike, the source gives them in different places.

Columns and labels:
HCoV-NL63 = experiment: In vitro antiviral activity assay (IFA), HCoV-NL63; format: cell-based; settings: for Inhibition rate (IFA): Fig 5C, MOI 0.1, 48 h
MHV [1] = experiment: microbe, parasite or virus in culture; format: cell-based, mouse hepatitis virus (MHV); settings: Murine coronavirus, 24 h, read-out: EC50 (IFA)
HCoV-OC43 [2] = experiment: In vitro antiviral activity assay (IFA), HCoV-OC43; format: cell-based; settings: for Inhibition rate (IFA): Fig 5E, MOI 0.1, 48 h
HCoV-OC43 [3] = experiment: Infection of ALI-cultured primary HBEs, HCoV-OC43; format: cell-based
Description: Primary HBEs at passage 3 or earlier were seeded at a density of 40,000 cells per well in Transwell inserts (Costar 6.5 mm Transwell, 0.4 μm Pore Polyester Membrane Inserts, catalog 3470) for expansion culture. The cells were cultured in expansion medium (PneumaCult-Ex Plus Medium, catalog 05040) until tight junctions were formed. Once tight junctions were established, the expansion medium in the upper chamber was discarded, and the medium in the lower chamber was replaced with ALI differentiation medium (PneumaCult-ALI Medium, catalog 05001). Cells were maintained under ALI conditions, with the medium being changed every 2 days. The differentiation process was carried out for 21 days, during which cell morphology and differentiation status were monitored. The fully differentiated cells were infected with HCoV-OC43, HCoV-229E, HCoV-NL63, or SARS-CoV-2 (MOI = 1), and fresh medium was changed 1 hour postinfection. Specific peptide was added into the medium every 24 hours. At 96 hours postinfection, cells in Transwell inserts were washed with 140 μL PBS per insert, and the wash fluid was collected to extract virus RNA followed by RT-qPCR. […] The fluorescence was measured using ImageJ (NIH).

WIV1 = format: cell-based, bat coronavirus WIV1
SARS-CoV-2 Omicron BA.5 = format: in vivo, K18-hACE2 C57BL/6 mice; settings: mouse, in vivo
MHV [4] = test system: MHV; design: species or system C57BL/6 mice; settings: mouse, in vivo
HCoV-229E = test system: HCoV-229E; design: species or system K18-hACE2 C57BL/6 mice; settings: mouse, in vivo
MHV [5] = experiment: TEM of MHV-infected 17Cl-1 cells (virions, DMVs); format: cell-based, mouse hepatitis virus (MHV)
Description: WT or Hgs-KO 17Cl-1 cells were grown on ACLAR films and infected with MHV. At 24 hpi the cells were rinsed with PBS and then fixed with 2.5% glutaraldehyde in PBS overnight. The fixed cells were rinsed with 0.1 M PB 2 times and then double-distilled water 2 times, each time for 6 minutes. They were submerged in an aqueous solution containing 1% osmium tetraoxide and 1.5% potassium ferricyanide for 1.5 hours and then rinsed with double-distilled water 3 times, each time for 6 minutes. The samples underwent a dehydration process in which the solution submerging the samples was sequentially replaced by 30%, 50%, 70%, 80%, 90%, 100%, 100%, and 100% ethanol solutions, with each solution submerging the sample for 6 minutes. The samples were then infiltrated sequentially with 100% acetone for 6 minutes 2 times, 3:1 acetone/EMbed 812 resin for 1 hour, 1:1 acetone/EMbed 812 resin for 2 hours, 1:3 acetone/EMbed 812 resin for 3 hours, and 100% EMbed 812 resin for 12 hours 2 times. The samples were embedded in EMbed 812 resin and underwent solidification at 45°C for 12 hours and then 60°C for 48 hours. Sectioning was performed with a Leica EM UC6 ultramicrotome. The sections were stained with 2% uranyl acetate for 15 minutes and 1% lead citrate for 5 minutes. Electron micrographs were acquired with an FEI Tecnai Spirit 120 kV transmission electron microscope operating at 100 kV accelerating voltage.

SARS-CoV-2 M protein = format: cell-based
[6] = format: cell-based
MHV [7] = format: cell-based, mouse hepatitis virus (MHV); settings: for Inhibition, combination matrix (Figure S12C): Molnupiravir 0 uM; for Inhibition, combination matrix (Figure S12D): nirmatrelvir 0 uM
hHgs 1-390 protein = hHgs 1-390 protein (Homo sapiens, UniProt O14964); experiment: biochemical
MHV [8] = experiment: microbe, parasite or virus in culture; settings: Murine coronavirus, 24 h, read-out: EC50, rescue of coronavirus-induced cytopathic effects
[9] = TEM, RTB-treated versus DMSO, sheet does not name what is scored

Chain of hHgs 1-390 protein (O14964 1-390): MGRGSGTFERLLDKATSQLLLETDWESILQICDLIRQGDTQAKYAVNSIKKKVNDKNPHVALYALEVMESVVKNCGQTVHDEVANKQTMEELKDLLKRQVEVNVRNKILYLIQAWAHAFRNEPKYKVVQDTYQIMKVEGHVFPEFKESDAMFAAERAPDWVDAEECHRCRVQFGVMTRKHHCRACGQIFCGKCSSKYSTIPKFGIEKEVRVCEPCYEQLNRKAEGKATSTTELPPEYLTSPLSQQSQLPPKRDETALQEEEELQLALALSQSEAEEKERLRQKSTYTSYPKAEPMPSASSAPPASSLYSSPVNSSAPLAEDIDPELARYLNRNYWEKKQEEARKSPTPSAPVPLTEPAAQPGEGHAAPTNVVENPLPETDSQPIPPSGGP

CCCC(=O)OC[C@@H](OC(=O)CCC)[C@@H](OC(=O)CCC)[C@H](Cn1c2nc(=O)[nH]c(=O)c-2nc2cc(C)c(C)cc21)OC(=O)CCC [RTB, riboflavin tetrabutyrate]
Inhibition rate (IFA) (HCoV-NL63; conc 30 (unit not given)): -14.9284% and -12.1937% and -12.3632% | Inhibition rate (IFA) (HCoV-NL63; conc 100 (unit not given)): -16.9149% and -18.5591% and -23.768% | Inhibition rate (IFA) (HCoV-NL63; conc 1000 (unit not given)): -12.8364% and -7.587% and -17.221% | Inhibition rate (IFA) (HCoV-NL63; conc 10000 (unit not given)): 59.7114% and 61.0537% and 58.023% | Inhibition rate (IFA) (HCoV-NL63; conc 25000 (unit not given)): 99.7675% and 100.17% and 100.28% | EC50 (HCoV-NL63; Human coronavirus NL63, 48 h, read-out: EC50 (IFA)): 8.46 µM | EC50 (MHV [1]): 11.2 µM | EC50 (HCoV-OC43 [2]; Betacoronavirus 1, OC43, 48 h, read-out: EC50 (IFA)): 13.9 µM | Inhibition rate (IFA) (HCoV-OC43 [2]; conc 10 (unit not given)): 33.23% and 29.76% and 39.01% | Inhibition rate (IFA) (HCoV-OC43 [2]; conc 30 (unit not given)): 30.69% and 22.69% and 29.93% | Inhibition rate (IFA) (HCoV-OC43 [2]; conc 100 (unit not given)): 21.56% and 24.49% and 30.14% | Inhibition rate (IFA) (HCoV-OC43 [2]; conc 300 (unit not given)): 23.53% and 24.32% and 29.19% | Inhibition rate (IFA) (HCoV-OC43 [2]; conc 1000 (unit not given)): 26.08% and 27.96% and 36.83% | Inhibition rate (IFA) (HCoV-OC43 [2]; conc 3000 (unit not given)): 25.37% and 28.07% and 29.03% | Inhibition rate (IFA) (HCoV-OC43 [2]; conc 10000 (unit not given)): 32.25% and 33.08% and 32.48% | Inhibition rate (IFA) (HCoV-OC43 [2]; conc 25000 (unit not given)): 79.43% and 69.76% and 58.83% | extracellular viral gRNA levels (RT-qPCR) (HCoV-OC43 [3]; Fig 5I, HCoV-OC43 MOI = 1, ALI-cultured HBEs, 96 h, RTB dose 5 (unit not given)): 24 and 18 and 15 | inhibition of infection in ALI cultures of HBEs (HCoV-OC43 [3]; HCoV-OC43): significant, dose-dependent inhibition | inhibition of infection in ALI cultures of HBEs (WIV1): significant, dose-dependent inhibition | Survival curves: per-mouse event code (SARS-CoV-2 Omicron BA.5): 0 | body weight loss (SARS-CoV-2 Omicron BA.5): markedly reduced body weight loss | lung inflammation (SARS-CoV-2 Omicron BA.5): alleviated lung inflammation | pulmonary viral titers (SARS-CoV-2 Omicron BA.5): substantially lowered pulmonary viral titers | survival (SARS-CoV-2 Omicron BA.5): significantly improved survival | pulmonary viral titers (MHV [4]): lowered pulmonary viral titers | viral gRNA (MHV [4]): significantly reduced viral gRNA | virus-induced lung injury (MHV [4]): markedly attenuated virus-induced lung injury | pulmonary viral titers (HCoV-229E): lowered pulmonary viral titers | viral gRNA (HCoV-229E): significantly reduced viral gRNA | virus-induced lung injury (HCoV-229E): markedly attenuated virus-induced lung injury | DMVs, the replication organelles (TEM) (MHV [5]; 25 μM, MHV-infected 17Cl-1, hpi = 24 h): not significantly changed | intracellular mature virions (TEM) (MHV [5]; 25 μM, MHV-infected 17Cl-1, hpi = 24 h, compared with DMSO): significantly decreased | Negative (count, Figure 7G) (MHV [5]; RTB-treated, DMSO: 19): 2 | Positive (count, Figure 7G) (MHV [5]; RTB-treated, DMSO: 41): 58 | Negative (number of cells counted, Figure 7H) (MHV [5]; [9]): 37 | Positive (number of cells counted, Figure 7H) (MHV [5]; [9]): 23 | Colocalization of M with Sec61b (Manders' coefficient) (SARS-CoV-2 M protein): 0.92 and 0.994 and 0.992 | M protein localization (SARS-CoV-2 M protein): induced M retention in the ER | Sec61b colocalization coefficient (Figure 7I) (SARS-CoV-2 M protein): 0.867 and 0.94 and 0.917 | Inhibition, time-of-drug-addition (Figures S12A, S12B) ([6]; 1h, concentration 10000 (unit not given)): 18.697 and 20.3699 and 24.961 | Inhibition, time-of-drug-addition (Figures S12A, S12B) ([6]; 1h, concentration 25000 (unit not given)): 81.3431 and 85.284 and 85.9984 | Inhibition, time-of-drug-addition (Figures S12A, S12B) ([6]; 3h, concentration 3000 (unit not given)): 10.0367 and 8.463 and 5.695 | Inhibition, time-of-drug-addition (Figures S12A, S12B) ([6]; 3h, concentration 10000 (unit not given)): 25.0374 and 23.4524 and 23.7085 | Inhibition, time-of-drug-addition (Figures S12A, S12B) ([6]; 3h, concentration 25000 (unit not given)): 87.678 and 84.0771 and 84.6309 | Inhibition, time-of-drug-addition (Figures S12A, S12B) ([6]; 5h, concentration 10000 (unit not given)): 24.2683 and 28.1902 and 26.5679 | Inhibition, time-of-drug-addition (Figures S12A, S12B) ([6]; 5h, concentration 25000 (unit not given)): 80.9022 and 85.7938 and 85.9604 | Inhibition, time-of-drug-addition (Figures S12A, S12B) ([6]; 7h, concentration 3000 (unit not given)): 11.352 and 13.6306 and 7.232 | Inhibition, time-of-drug-addition (Figures S12A, S12B) ([6]; 7h, concentration 10000 (unit not given)): 27.8545 and 21.5848 and 25.4245 | Inhibition, time-of-drug-addition (Figures S12A, S12B) ([6]; 7h, concentration 25000 (unit not given)): 81.9707 and 81.2844 and 80.2961 | Inhibition, combination matrix (Figure S12C) (MHV [7]; RTB 0.01 uM): -3.196 | Inhibition, combination matrix (Figure S12D) (MHV [7]; RTB 0.01 uM): 0.02357 | Inhibition, combination matrix (Figure S12C) (MHV [7]; RTB 0.03 uM): 0.4191 | Inhibition, combination matrix (Figure S12D) (MHV [7]; RTB 0.03 uM): 0.6847 | Inhibition, combination matrix (Figure S12C) (MHV [7]; RTB 0.1 uM): 5.187 | Inhibition, combination matrix (Figure S12D) (MHV [7]; RTB 0.1 uM): 4.267 | Inhibition, combination matrix (Figure S12C) (MHV [7]; RTB 0.3 uM): 0.1333 | Inhibition, combination matrix (Figure S12D) (MHV [7]; RTB 0.3 uM): 7.699 | Inhibition, combination matrix (Figure S12C) (MHV [7]; RTB 1 uM): 5.1 | Inhibition, combination matrix (Figure S12D) (MHV [7]; RTB 1 uM): 9.0154 | Inhibition, combination matrix (Figure S12C) (MHV [7]; RTB 3 uM): 12.0762 | Inhibition, combination matrix (Figure S12D) (MHV [7]; RTB 3 uM): 25.2258 | Inhibition, combination matrix (Figure S12C) (MHV [7]; RTB 10 uM): 64.6863 | Inhibition, combination matrix (Figure S12D) (MHV [7]; RTB 10 uM): 39.9859 | Inhibition, combination matrix (Figure S12C) (MHV [7]; RTB 25 uM): 94.0563 | Inhibition, combination matrix (Figure S12D) (MHV [7]; RTB 25 uM): 93.5156 | combination effect in vitro (MHV [7]; combined with molnupiravir): additive effects | combination effect in vitro (MHV [7]; combined with nirmatrelvir): additive effects | IC50 (hHgs 1-390 protein): 0.58 µM | EC50 (MHV [8]): 3.48 µM
